Test results: the NIST ThermoML archive (doi:10.1021/je300974g)

Experiments:
[1] = 101.33 kPa, Liquid, Vibrating tube method
[2] = xn = mol fraction of the nth substance listed; settings: 101 kPa, Liquid, Vibrating tube method

CCNC=O [N-ethylformamide]
[1]
Settings | mass density [kg/m3]
293.15 K | 951.59
298.15 K | 947.48
303.15 K | 943.29
308.15 K | 939.04
313.15 K | 934.78

CCNC=O [N-ethylformamide] + CCCOC(C)=O
mass density [kg/m3], [2]
Settings | x1 = 0.1294 | x1 = 0.2456 | x1 = 0.3565 | x1 = 0.4694 | x1 = 0.5596 | x1 = 0.6587 | x1 = 0.7478 | x1 = 0.8363 | x1 = 0.9182
293.15 K | 892.25 | 899.54 | 906.52 | 913.89 | 919.91 | 926.72 | 933 | 939.47 | 945.56
298.15 K | 887.29 | 894.73 | 901.8 | 909.26 | 915.35 | 922.25 | 928.63 | 935.19 | 941.36
303.15 K | 882.35 | 889.93 | 897.09 | 904.67 | 910.86 | 917.78 | 924.29 | 930.93 | 937.11
308.15 K | 877.39 | 885.05 | 892.4 | 900.06 | 906.31 | 913.38 | 919.92 | 926.57 | 932.85
313.15 K | 872.28 | 880.14 | 887.6 | 895.34 | 901.71 | 908.84 | 915.46 | 922.22 | 928.54

CCCC(C)=O [pentan-2-one]
[1]
Settings | mass density [kg/m3]
293.15 K | 807.47
298.15 K | 802.46
303.15 K | 797.53
308.15 K | 792.52
313.15 K | 787.44

CCCOC(C)=O [propyl ethanoate]
[1]
Settings | mass density [kg/m3]
293.15 K | 887.97
298.15 K | 882.21
303.15 K | 876.54
308.15 K | 870.81
313.15 K | 864.95

C1CCOCC1 [tetrahydropyran]
[1]
Settings | mass density [kg/m3]
293.15 K | 884.08
298.15 K | 878.95
303.15 K | 873.79
308.15 K | 868.67
313.15 K | 863.43
